Measured values reported in patent publication US20240383881A1, “SYNTHETIC COMPOUND OF MYRICETIN AND NOBILETIN, AND PREPARATION METHOD THEREFOR” (The Second People's Hospital of Shenzhen (Shenzhen …, priority 2023, published 2024).

Tests used:
mice with hyperuricemia = test: yeast extract feed-induced hyperuricemia model in KM mice; assay type: in vivo, KunMing (KM) mice; settings: 30 mg/kg intragastric daily for 9 weeks; for serum UA levels vs model group: P<0.001, P<0.001, P<0.01; for serum creatinine level vs model group / serum urea nitrogen level vs model group: P<0.001; for serum urea nitrogen level vs model group: FIG. 2B; for kidney index vs model group: FIG. 3A, P<0.05 (synthetic compound), P<0.001 (nobiletin); for liver index vs model group: FIG. 3B, P<0.001, P<0.05, P<0.01; for renal pathological morphology (HE staining): renal tissue, x200
Experimental: Specific pathogen free (SPF) grade KunMing (KM) mice, male, aged 5-6 weeks, weighing 22-25 g, are provided by Medical Experimental Animal Center of Guangdong Province with an animal qualification certificate number: SCXK (Yue) 2022-0002. The mice are raised in plastic cages, with free diet and drinking water. The indoor temperature of the plastic cages is (22±2)° C., and a relative humidity is maintained at 55%±5%. The lights are turned on and turned off for 12 hours, respectively. After quarantine and adaptation for one week, relevant experiments are conducted. The experimental plan is reviewed and approved by the Animal Welfare Ethics Committee of Zhongke Industry Holdings (Shenzhen) Co., Ltd. (application number: 20220082), and the operation and process of animal experiments follow the “Guidelines for the use of experimental animals in teaching” of the Chinese Society of Experimental Animals. Customized dietary feeds: 15% of yeast extract feeds, in compliance with regulations of GB13078 and GB14924.2, are provided by Jiangsu Synergy Pharmaceutical Biotechnology Co., Ltd. Production license: Su Si Zheng (2019) 01008. After 2 weeks of adaptive feeding in the plastic cages, the SPF grade KM mice are randomly divided into five groups: normal group (Control), model group (Model), synthetic compound group (PJW), myricetin group (Myricetin), and nobiletin group (Nobiletin). The dosage of each individual test medicine group is 30 milligrams per kilogram (mg/kg), and the medicines are dissolved in a 0.5% carboxymethyl cellulose sodium solution with a gavage volume of 10 milliliters per kilogram (mL/kg). Except for the normal group fed with basic feed, the other groups are fed with 15% of the yeast extract feeds for modeling. The normal group and the model group are intragastrically administered an equal amount of physiological saline daily, and the other groups are intragastrically administered with the corresponding medicine daily for 9 weeks. At the end of the experiment, that is, at the end of the 9th week of administration, the KM mice are fasted for 12 hours, then the KM mice are anesthetized with the isoflurane to take off the eyeballs from the KM mice for blood collection, followed by placing the collected blood to stand in the room temperature for 1 hour. After the standing, the blood is centrifuged at 3500 revolutions per minute (rpm/min) for 15 minutes to obtain centrifuged solutions, respectively, then serums of the centrifuged solution are separated to detect the levels of the uric acid, the creatinine, the urea nitrogen. The KM mice are sacrificed by dislocation of cervical vertebra after collecting blood, livers and kidneys are dissected from the KM mice and weighed to calculate indexes of the livers and the kidneys, an organ index of the formula is as follows: organ index=organ weight (g)/body mass (g)×100%. Then the livers and the kidneys are quickly packed, one portion of the packed sample is fixed with 4% paraformaldehyde solution for HE staining, and the other portion of the packed sample is stored at −80° C. in a refrigerator for later use. The renal tissues fixed with 4% paraformaldehyde from the kidneys are taken to be dehydrated with ethanol, embedded in paraffin, and sliced. After staining with hematoxylin-eosin, the pathological changes of renal tissues are observed under an upright optical microscope. All data are statistically analyzed using a GraphPad Prism 7.00 software, and the data are presented as a mean value±a standard error (standard deviation±standard error of the mean abbreviated as SD±SEM). Multiple group comparisons are conducted using a one-way Analysis of Variance (ANOVA), and pairwise comparisons between groups are conducted using a Dunnett's test. P<0.05 indicates a statistically significant difference.

[1] = molecular target: T1, organic anion transporter 4 (OAT4) (Homo sapiens, UniProt Q9NSA0); settings: OAT4 overexpressed monoclonal cell line; Wang Ze et al. 2019; read-out: half-maximal inhibitory concentration (IC50) on OAT4; cited from earlier work
T1 sequence (Q9NSA0 1-550): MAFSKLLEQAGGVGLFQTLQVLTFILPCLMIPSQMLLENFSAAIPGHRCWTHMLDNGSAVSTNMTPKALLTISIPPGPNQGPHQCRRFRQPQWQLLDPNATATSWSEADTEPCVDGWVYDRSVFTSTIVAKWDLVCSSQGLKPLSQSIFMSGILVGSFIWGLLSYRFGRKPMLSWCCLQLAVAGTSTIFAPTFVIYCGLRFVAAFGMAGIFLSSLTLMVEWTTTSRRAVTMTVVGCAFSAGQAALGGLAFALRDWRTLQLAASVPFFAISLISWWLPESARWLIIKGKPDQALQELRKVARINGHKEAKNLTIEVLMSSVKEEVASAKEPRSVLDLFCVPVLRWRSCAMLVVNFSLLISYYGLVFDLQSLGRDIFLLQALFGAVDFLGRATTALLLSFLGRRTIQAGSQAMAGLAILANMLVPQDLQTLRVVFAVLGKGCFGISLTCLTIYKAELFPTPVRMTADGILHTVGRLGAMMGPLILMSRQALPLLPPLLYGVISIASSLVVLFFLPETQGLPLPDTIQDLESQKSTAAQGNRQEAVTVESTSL

[2] = patients with hyperuricemia; Wang Yong et al. 2010; cited from earlier work

## COc1ccc(-c2cc(=O)c3c(OC)c(OC)c(OC)c(OC)c3o2)cc1OC [nobiletin]
Mice with hyperuricemia; FIG. 1
  serum UA levels vs model group: significantly reduced
Mice with hyperuricemia; FIG. 2A
  serum creatinine level vs model group: significantly reduced
Mice with hyperuricemia
  serum urea nitrogen level vs model group: significantly reduced
  kidney index vs model group: significantly reduced
  liver index vs model group: significantly reduced
Mice with hyperuricemia; FIG. 4
  renal pathological morphology (HE staining): improve renal injury
[1]
  IC50: 556 nM

## O=c1c(O)c(-c2cc(O)c(O)c(O)c2)oc2cc(O)cc(O)c12 [myricetin]
Mice with hyperuricemia; FIG. 1
  serum UA levels vs model group: significantly reduced
Mice with hyperuricemia; FIG. 2A
  serum creatinine level vs model group: significantly reduced
Mice with hyperuricemia
  serum urea nitrogen level vs model group: significantly reduced
  liver index vs model group: significantly reduced
Mice with hyperuricemia; FIG. 4
  renal pathological morphology (HE staining): improve renal injury
[2]
  serum uric acid (UA) levels in patients: significantly reduce

## COc1cc(OC)c2c(=O)c(OCCCC(=O)Oc3c(-c4ccc(OC)c(OC)c4)oc4c(OC)c(OC)c(OC)c(OC)c4c3=O)c(-c3cc(OC)c(OC)c(OC)c3)oc2c1 [synthetic compound]
Mice with hyperuricemia; FIG. 1
  serum UA effect compared with monomer groups: better than that of each monomer group
  serum UA levels vs model group: significantly reduced
Mice with hyperuricemia; FIG. 2A
  effect on creatinine compared with monomer medicines: better than that of monomer medicines
  serum creatinine level vs model group: significantly reduced
Mice with hyperuricemia
  serum urea nitrogen level vs model group: significantly reduced
  kidney index vs model group: significantly reduced
  liver index vs model group: significantly reduced
Mice with hyperuricemia; FIGS. 3A-3B
  organ index effect compared with monomer groups: better than that of each monomer group
Mice with hyperuricemia; HE staining, FIG. 4
  improvement of renal pathological morphology compared with monomer medicines: better than that of monomer medicines
Mice with hyperuricemia; FIG. 4
  renal pathological morphology (HE staining): improve renal injury
